According to publication PMC6234764, “First Insights Into Within Host Translocation of the Bacillus cereus Toxin Cereulide Using a Porcine Model” (Frontiers in Microbiology, 2018):

What was measured:
[1] = Excretion of cereulide in feces and urine, SIDA-MS; format: in vivo, pig
Protocol: A total of four experiments, each including four treated animals and one control pig, was performed to investigate the action of cereulide on piglets after oral intake of cereulide. Pigs were either challenged orally with a single dose (acute trials) or with daily over a period of 7 days (chronic trial) (see Table 1). One hour before cereulide toxin administration blood samples were taken by puncturing the anterior Vena cava and piglets were weighed for calculation of the cereulide concentration (t = 0 h). In the intoxication experiment with 150 μg kg^-1 blood samples were taken 68 h before the experiment to reduce the distress for the animals at the start day of the experiments. Blood-chemical, immunological, and histological analyses of selected organs as well as quantification of cereulide in organs, tissues, urine and feces were carried out as detailed below.
On body weight calculated amounts of cereulide, dissolved in ethanol, were mixed with milk (UHT milk; 3.5% fat), and fed to four piglets. Control piglets were fed with milk supplemented with similar ethanol concentrations as the experimental piglets. The experiment started after the uptake of the whole milk cereulide mixture. The milk was checked for bacterial contamination prior to the experiment.
(§1) After oral administration of cereulide, piglets were monitored for unusual behavior and examined physically with special respect on rectal body temperature as well as pulse and respiration rate, every 2–3 h. Blood samples were taken from the Vena cava cranialis. Urine and feces were collected during the whole experiment and stored at -80°C. After the experiment pigs were anaesthetized by intramuscular injection of a bolus of ketamine (10 mg kg^-1) and azaperone (1.3 mg kg^-1). When sedation was deep enough cerebrospinal fluid (liquor) was taken by lumbar puncture. Finally, pigs were euthanized by intracardial injection of T61®. Animals were then necropsied and parts of the following organs, tissues or body fluids were taken for SIDA-MS analysis: liver, lung, heart, kidney, brain, spleen, small and large intestine, lymph nodes, gastric as well as intestinal contents, skeletal muscle, and abdominal and subcutaneous fat. Samples of liver, lung, heart, kidney, brain, spleen, small, and large intestine were collected for histological analysis.
Collected blood samples, urine, feces, tissue and organs were freeze dried and stored at -80°C until analysis. Before extraction, liquid nitrogen was added to frozen samples and they were crushed to a powder using a mortar. Ten microgram ^13C6-cereulide (for organs and feces) or 5 μg ^13C6-cereulide (for urine and blood) was added and samples were incubated on a rocking table for 2 h. Samples were solved in ethanol (volume depending on weight 10–40 mL), incubated 14 h, and the supernatants were collected by centrifugation (RT, 8500 g, 10 min). For pre-purification the ethanolic extract was 1:5 diluted with water and applied onto the top of a methanol activated C18-SPE cartridge (6 mL; 1 g; Strata C18-E; Phenomenex, Aschaffenburg, Germany). The cartridge was washed with 6 mL water followed by methanol/water (4 mL; 70/30, v/v) and target compounds were eluted with ethanol (2.5 mL). Finally, samples were membrane filtrated (0.2 μm; PTFE membrane; Phenomenex, Aschaffenburg, Germany) and analyzed by means of LC-MS/MS as described previously ([Bauer et al., 2010]). In brief, LC-MS/MS analysis was performed using an Agilent 1200 HPLC-system connected to the API 4000QTrap LC-MS/MS (Applied Biosystems, Darmstadt, Germany) running in the positive electrospray ionization (ESI^+, +5500 V) mode. Zero grade air served as nebulizer gas (45 psi) and turbo gas (425°C) for solvent drying (55 psi), nitrogen was used as curtain (20 psi) and collision gas (8.7 × 10^-7 psi), respectively. Both quadrapoles were set at unit resolution. […]

[2] = plasma of rabbits, direct intravenous injection; ref Cui et al., 2016; cited from earlier work
piglets = assay: Histological examination of organs; format: in vivo, pig; conditions: pigs orally challenged with cereulide
Protocol: as §1

[3] = daily oral dose 10 μg kg^-1 over 7 days

Structure (SMILES): CC(C)C[C@H]1OC(=O)[C@H](C(C)C)NC(=O)[C@H](C(C)C)OC(=O)[C@@H](C)NC(=O)[C@@H](CC(C)C)OC(=O)[C@H](C(C)C)NC(=O)[C@H](C(C)C)OC(=O)[C@@H](C)NC(=O)[C@@H](CC(C)C)OC(=O)[C@H](C(C)C)NC(=O)[C@H](C(C)C)OC(=O)[C@@H](C)NC1=O [cereulide]
- Cereulide concentration in feces ([1]; daily oral dose 10 μg kg^-1, until end of trial on day 7): 0.02 to 0.29 μg cereulide g^-1 feces
- Detectability of cereulide in urine [1, 3]: no cereulide was detectable
- Time until cereulide became detectable in fecal samples [1, 3]: 2 to 3 days
- Amount of cereulide excreted with the feces ([1]; one pig (13 kg), 30 μg kg^-1 (total intake 390 μg), after 12 h): 20.90 µg
- Amount of cereulide excreted with the feces ([1]; one pig (13 kg), 30 μg kg^-1 (total intake 390 μg), after 24 h): 26.80 µg
- Amount of cereulide excreted with the feces ([1]; one pig (13 kg), 30 μg kg^-1 (total intake 390 μg), after 48 h): 1.38 µg
- Total amount of cereulide excreted with the feces ([1]; one pig (13 kg), 30 μg kg^-1 (total intake 390 μg), in 33.6 g feces over 48 h): 49.08 µg
- Cereulide concentration in fecal samples, maximum ([1]; oral challenge, SIDA-MS): up to 5 μg cereulide g^-1 feces
- Overall cereulide excretion in feces, % of total amount ([1]; single oral dose 30 μg kg^-1, within first 48 h): up to 13%
- Time of first detection in fecal samples post-toxin exposure ([1]; single oral dose 150 μg kg^-1): 3 to 4 h
- Cereulide concentration in urine, maximum ([1]; single oral dose 150 μg kg^-1, SIDA-MS): up to 2 ng cereulide mL^-1 urine
- Overall cereulide excretion in feces, % of total quantity administered ([1]; single oral dose 150 μg kg^-1, within first 48 h): up to 15%
- Time of highest toxin amounts excreted with feces ([1]; single oral dose 150 μg kg^-1, exception one pig that did not defecate over 20 h): 16 to 24 h
- Detectability of cereulide in urine ([1]; single oral doses 10 μg kg^-1/30 μg kg^-1, SIDA-MS): not from animals challenged with lower cereulide doses
- Cereulide orally administered that is shed with feces ([1]; within the first 48 h, acute trials): 10–15%
- Elimination half-life [2]: 10.8 ± 9.1 h
- Histological examinations of liver, lung, heart, kidneys, brain, spleen and gastrointestinal tract (piglets): did not reveal any notable or specific pathological changes
